Experimental data: ChEMBL document CHEMBL1146706, “New orally active PDE4 inhibitors with therapeutic potential” (Bioorg Med Chem Lett, 2004)

How the values were obtained:
[1] = molecular target: Phosphodiesterase 4 (Homo sapiens, UniProt P27815+Q08499+Q07343+Q08493); assay: Inhibition of phosphodiesterase 4 (PDE4) from U937 cells; assay type: cell-based; conditions: u-937
[2] = tested on: Mustela putorius furo; assay: Emetic effect in fasted ferrets at 10 mg/kg peroral dose (n=3); assay type: functional; conditions: route oral
[3] = tested on: Mustela putorius furo; assay: Emetic effect in fasted ferrets at 3 mg/kg peroral dose (n=2); assay type: functional; conditions: route oral
[4] = tested on: Mustela putorius furo; assay: Emetic effect in fasted ferrets at 30 mg/kg peroral dose (n=2); assay type: functional; conditions: route oral
[5] = tested on: Cavia porcellus; assay: In vivo inhibition of SRS-A mediated bronchoconstriction in guinea pig at 10 mg/kg peroral dose; assay type: functional; conditions: Lung, route oral
[6] = species: Homo sapiens; assay: Inhibition of TNF-alpha production in human whole blood; assay type: functional, organism-based
[7] = species: Rattus norvegicus; assay: Inhibition of gastric emptying in rats by peroral dose; assay type: functional; conditions: Stomach, po, read-out: ID50 (the source's name)
[8] = tested on: Rattus norvegicus; assay: Inhibition of lipopolysaccharide-induced tumor necrosis factor alpha production in rats by peroral administration (n=7); assay type: functional; conditions: po, read-out: ID50 (the source's name)
[9] = tested on: Rattus norvegicus; assay: Inhibition of lipopolysaccharide-induced tumor necrosis factor alpha production in rats at 10 mg/kg peroral dose (n=7); assay type: functional; conditions: route oral
[10] = tested on: Mustela putorius furo; assay: Emetic effect in fasted ferrets at 10 mg/kg peroral dose (n=2); assay type: functional; conditions: route oral
[11] = tested on: Cavia porcellus; assay: In vivo inhibition of slow reacting substance of anaphylaxis (SRS-A) mediated bronchoconstriction in guinea pig; assay type: functional, organism-based; conditions: Lung
[12] = tested on: Rattus norvegicus; assay: Inhibition of gastric emptying in rats […] peroral dose; assay type: functional; conditions: Stomach, route oral, read-out: ID50 (the source's name)
[13] = tested on: Rattus norvegicus; assay: Inhibition of lipopolysaccharide-induced tumor necrosis factor alpha production in rats at 3 mg/kg peroral dose (n=7); assay type: functional; conditions: route oral
[14] = tested on: Rattus norvegicus; assay: Inhibition of lipopolysaccharide-induced tumor necrosis factor alpha production in rats by peroral administration; assay type: functional; conditions: po, read-out: ID50 (the source's name)

Cc1nn(C)c2ncc(C(N)=O)c(Nc3cccc(OC4CCCCC4)c3)c12
IC50 [1]: > 100 nM

COC(=O)N1CC[C@H](Oc2cccc(Nc3c(C(N)=O)cnc4c3c(C)nn4C)c2)C1
No. of ferrets [2]: 0
No. of ferrets [3]: 0
No. of ferrets [4]: 2
inhibition in vivo at 10 mg/kg [5]: 45%
IC50 [6]: 4800 nM
IC50 [1]: 10 nM
ED50 [7]: 15 mg/kg
ED50 [8]: 1 mg/kg

COc1ccc(Nc2c(C(N)=O)cnc3c2c(C)nn3C)cc1
IC50 [1]: > 100 nM

Cc1nn(C)c2ncc(C(N)=O)c(Nc3cccc(O)c3)c12
IC50 [1]: 97 nM
inhibition in vivo at 10 mg/kg [9]: 40%

Cc1nn(C)c2ncc(C(N)=O)c(Nc3cccc(O[C@H]4CCN(C(=O)OC(C)(C)C)C4)c3)c12
IC50 [1]: > 300 nM

CC(=O)N1CC[C@H](Oc2cccc(Nc3c(C(N)=O)cnc4c3c(C)nn4C)c2)C1
IC50 [1]: > 300 nM

Cc1nn(C)c2ncc(C(N)=O)c(Nc3ccccc3)c12
IC50 [1]: 36 nM
inhibition in vivo at 10 mg/kg [9]: 48%

COc1cccc(Nc2c(C(N)=O)cnc3c2c(C)nn3C)c1
No. of ferrets [10]: 0
No. of ferrets [3]: 0
No. of ferrets [4]: 1
IC50 [11]: 6800 nM
IC50 [6]: 3000 nM
IC50 [1]: 5 nM
ED50 [12]: 23 mg/kg
ED50 [8]: 2.4 mg/kg

Cc1nn(C)c2ncc(C(N)=O)c(Nc3cccc(C#N)c3)c12
IC50 [1]: 85 nM
inhibition in vivo at 3 mg/kg [13]: 2%

COc1ccccc1Nc1c(C(N)=O)cnc2c1c(C)nn2C
IC50 [1]: 76 nM
inhibition in vivo at 10 mg/kg [9]: 68%

Cc1nn(C)c2ncc(C(N)=O)c(Nc3cccc(OC4CCCC4)c3)c12
IC50 [1]: > 100 nM
inhibition in vivo at 10 mg/kg [9]: 39%

Cc1nn(C)c2ncc(C(N)=O)c(Nc3cccc(O[C@H]4CCN(S(C)(=O)=O)C4)c3)c12
IC50 [1]: 250 nM

Cc1nn(C)c2ncc(C(N)=O)c(Nc3cccc(O[C@H]4CCNC4)c3)c12
IC50 [1]: > 300 nM

Cc1nn(C)c2ncc(C(N)=O)c(Nc3cccc(OC4CCC4)c3)c12
IC50 [1]: > 100 nM

COc1ccc([C@]2(C#N)CC[C@@H](C(=O)O)CC2)cc1OC1CCCC1 [CILOMILAST]
IC50 [11]: 4500 nM
ED50 [7]: 5.7 mg/kg
ED50 [14]: 1.7 mg/kg
